Assay results from patent publication US11319305B2, “Pyrimidine sulfamide derivative and preparation method and medical application thereof” (SHIJIAZHUANG SAGACITY NEW DRUG DEVELOPMENT CO., LTD., priority 2017, dated 2022).

Assays:
human ETB receptor = target: T1, human ETB receptor (Homo sapiens, UniProt P24530); assay: In vitro antagonistic effect against human ETB receptor, Ca2+ signal in transfected CHO cells; format: cell-based; settings: response to 0.3 nM endothelin-1
T1 construct: host or cells: CHO cells
T1 sequence (P24530 27-442): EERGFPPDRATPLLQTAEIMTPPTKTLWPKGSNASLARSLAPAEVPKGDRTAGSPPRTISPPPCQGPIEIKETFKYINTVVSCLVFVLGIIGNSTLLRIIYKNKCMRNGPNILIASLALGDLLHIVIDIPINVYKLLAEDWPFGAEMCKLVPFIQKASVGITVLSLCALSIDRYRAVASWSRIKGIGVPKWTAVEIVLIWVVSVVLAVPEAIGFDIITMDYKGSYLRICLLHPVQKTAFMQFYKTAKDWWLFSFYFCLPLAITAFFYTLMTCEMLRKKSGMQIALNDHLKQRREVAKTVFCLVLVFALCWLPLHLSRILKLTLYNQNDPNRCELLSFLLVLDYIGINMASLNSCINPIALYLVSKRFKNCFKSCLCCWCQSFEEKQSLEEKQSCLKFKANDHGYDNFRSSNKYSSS
Method: Antagonist activity of the compound against human ETB receptors expressed in transfected CHO cells was evaluated by measuring the effect of the compound on the changes in the cytoplasmic Ca^2+ ion signal induced by human ETB receptor agonists. The functional activity of the ETB receptor antagonistic effect was tested in Eurofins-Cerep SA according to current standard procedures.
1. Cells were suspended in DMEM buffer (Invitrogen) and then distributed in 384-well plate (100 μL/well) at a density of 3×10^4 cells/well;
(§1) 2. Probenecid in HBSS buffer (Invitrogen) supplemented with 20 mM Hepes (Invitrogen) (pH 7.4) was mixed with fluorescent probe (Fluo4 NW, Invitrogen), the mixture was added to each wells, then balanced with cells at 37° C. for 60 minutes, and then balanced with cells at 22° C. for 15 minutes;
(§2) 3. The test plate was placed in a microplate reader (CellLux, PerkinElmer), a DMSO solution or HBSS buffer with an appropriate concentration of the test compound and the positive control was added, and 0.3 nM endothelin-1 or HBSS buffer (base control) was added after 5 minutes, and then the change in fluorescence intensity proportional to the concentration of Ca^2+ ions of […] was measured;
4. Results were shown as the percent inhibition of control response to 0.3 nM endothelin-1;
5. Standard positive control was BQ-788, several concentrations were tested in each experiments. The data was analyzed using Prism to generate a concentration-response curve, and IC50 values of the compounds were calculated.

[1] = Pharmacokinetics in SD rats; format: in vivo; settings: male, Sprague-Dawley, rat, plasma; for half-life / clearance: intravenous injection 2 mg/kg; for clearance: iv, 2 mg/kg, read-out: Plasma clearance rate
Source text: Experimental Embodiment 6: Evaluation on the Pharmacokinetic of the Compounds in Rats
SD male rats were selected as the test animals in this study, and the drug concentration in plasma of the rats at different time points via intravenous injection or oral gastric administration of the test compound was quantitatively measured using LC/MS/MS method to evaluate the pharmacokinetic characteristics of the test compounds in rats.
Sprague Dawley (SD) rats (male, 200-300 g, 7-10 weeks old, Beijing Viton Lihua or Shanghai Slake).
A clear solution of the test compound was injected into SD rats via the tail vein (overnight fasting), or administrated orally by gavage (overnight fasting). For intravenous administration, 200 μL of jugular blood was collected via vein puncture at 0 hour (pre-dosing) and at 0.0833, 0.25, 0.5, 1, 2, 4, 6, 8 and 24 hours after dosing, which was then placed in an anticoagulation tube supplemented with EDTA-K2 (Suzuki Healthcare Medical Co., Ltd.). The mixture in the anticoagulation tube was vortexed to mix thoroughly at 4° C., and then centrifuged at 13000 rpm for 10 minutes to collect the plasma. For oral gavage administration, 200 μL of jugular blood was collected via vein puncture at 0 hour (pre-dosing) and at 0.5, 1, 2, 4, 6, 8 and 24 hours after dosing, which was then placed in an anticoagulation tube supplemented with EDTA-K2 (Suzuki Healthcare Medical Co., Ltd.). The mixture in the anticoagulation tube was vortexed to mix thoroughly, and then centrifuged at 13000 rpm for 10 minutes to collect the plasma. Plasma drug concentration was measured by LC/MS/MS method, and related pharmacokinetic parameters were calculated using WinNonlin™ Version 6.3 (Pharsight, Paul View, Calif.) pharmacokinetics software in non-room model linear logarithmic trapezoids method.

human ETA receptor = target: T2, human ETA receptor (Homo sapiens, UniProt P25101); assay: In vitro antagonistic effect against human ETA receptor, Ca2+ signal in SK-N-MC cells; format: cell-based; settings: for IC50: SK-N-MC cells, response to 1 nM endothelin-1; for ETA/ETB selectivity: ratio of ETB IC50 to ETA IC50
T2 construct: endogenously expressed human ETA receptors in SK-N-MC cells; host or cells: SK-N-MC cells
T2 sequence (P25101 21-427): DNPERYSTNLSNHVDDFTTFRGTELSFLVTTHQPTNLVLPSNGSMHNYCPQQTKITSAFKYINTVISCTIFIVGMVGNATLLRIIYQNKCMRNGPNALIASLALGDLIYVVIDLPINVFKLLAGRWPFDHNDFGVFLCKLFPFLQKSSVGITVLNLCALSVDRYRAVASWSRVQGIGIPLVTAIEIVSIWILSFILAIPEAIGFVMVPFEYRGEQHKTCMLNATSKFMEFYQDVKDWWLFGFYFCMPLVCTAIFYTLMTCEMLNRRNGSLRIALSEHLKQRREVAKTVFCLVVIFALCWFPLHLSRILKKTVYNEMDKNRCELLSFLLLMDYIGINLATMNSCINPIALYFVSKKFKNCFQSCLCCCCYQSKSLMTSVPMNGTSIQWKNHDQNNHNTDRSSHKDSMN
Method: Experimental Embodiment 1: In Vitro Test of Antagonistic Effect Against Human ETA Receptor
Antagonistic activity of the compounds against endogenously expressed human ETA receptors in SK-N-MC cells was evaluated by measuring the effect of compounds on the changes in cytoplasmic Ca^2+ ion signal induced by human ETA receptor agonists using fluorescence detection methods. The functional activity of the ETA receptor antagonistic effect was tested in Eurofins-Cerep SA according to current standard procedures.
1. Cells were suspended in Dulbecco's modified Eagle medium solution (DMEM, Invitrogen) supplemented with 1% FCSd, then distributed in 384-well plate (100 μL/well) at a density of 5×10^4 cells/well;
as §1, with “Hank's balanced salt solution (HBSS, Invitrogen)” for “HBSS buffer (Invitrogen)”, “4-(2-hydroxyethyl)piperazine-1-ethanesulfonic acid (Hepes, Invitrogen)” for “Hepes (Invitrogen)”
as §2, with “1” for “0.3”
5. Standard positive control was BQ-123, several concentrations were tested in each experiments. The data was analyzed using Prism to generate a concentration-response curve, and IC50 values of the compounds were calculated.

With `NS(=O)(=O)Nc1ncnc(OCCOc2ncc(Br)cn2)c1-c1ccc2c(c1)OCO2` [WX001] as the compound, how does the IC50 (human ETB receptor) read?
Its IC50 is 85 µM.

And the half-life [1]?
Its half-life is 1.26 h.

What about the clearance [1] of the same compound?
Its clearance is under 5 mL/min/kg.

And the IC50 (human ETA receptor)?
Its IC50 is 0.0028 µM.

And the ETA/ETB selectivity (human ETA receptor)?
The ETA/ETB selectivity was 30300.

Which IC50 (human ETB receptor) does the source give for `COCCNS(=O)(=O)Nc1ncnc(OCCOc2ncc(Br)cn2)c1-c1ccc2c(c1)OCO2` [WX013] here?
The IC50 was 66 µM.

And the half-life [1]?
Its half-life is 1.14 h.

What about the clearance [1] of the same compound?
Its clearance is under 5 mL/min/kg.

And the bioavailability ([1]; po, 10 mg/kg, oral administration 10 mg/kg)?
Its bioavailability is over 70%.

And the IC50 (human ETA receptor)?
The IC50 was 0.0014 µM.

What about the ETA/ETB selectivity (human ETA receptor) of the same compound?
Its ETA/ETB selectivity is 47100.
